Data from ChEMBL document CHEMBL4402510, “Caprazamycins: Promising lead structures acting on a novel antibacterial target MraY” (Eur J Med Chem, 2019).
Converted amounts (≈) assume the structure as drawn.

How the values were obtained:
Mycolicibacterium phlei = assay: Antibacterial activity against Mycobacterium phlei; type: functional
[1] = tested on: Mycobacterium tuberculosis; assay: Antibacterial activity against Mycobacterium tuberculosis H37Rv; type: functional
[2] = Antibacterial activity against Mycobacterium avium subsp. avium ATCC 25291; type: functional
[3] = tested on: Mycobacterium avium subsp. paratuberculosis; assay: Antibacterial activity against Mycobacterium avium subsp. paratuberculosis ATCC 43015; type: functional
[4] = tested on: Mycobacterium tuberculosis; assay: Antibacterial activity against Mycobacterium tuberculosis Kurono; type: functional
[5] = tested on: Mycobacterium tuberculosis; assay: Antibacterial activity against Mycobacterium tuberculosis JCM 6384; type: functional
[6] = tested on: Mycolicibacterium smegmatis; assay: Antibacterial activity against Mycobacterium smegmatis ATCC 607; type: functional
Mycolicibacterium vaccae = assay: Antibacterial activity against Mycobacterium vaccae ATCC 15483; type: functional
Staphylococcus aureus [7] = assay: Antibacterial activity against methicillin resistant Staphylococcus aureus No. 5; type: functional
Staphylococcus aureus [8] = assay: Antibacterial activity against Staphylococcus aureus FDA 209P; type: functional
Staphylococcus aureus [9] = assay: Antibacterial activity against methicillin resistant Staphylococcus aureus MS16526; type: functional
Bacillus subtilis = assay: Antibacterial activity against Bacillus subtilis PCI 219; type: functional
Escherichia coli [10] = assay: Antibacterial activity against Escherichia coli K-12; type: functional
Escherichia coli [11] = assay: Antibacterial activity against Escherichia coli expressing MraY; type: functional, organism-based

CCCCCCCCCCCCCCCCCNC(=O)C1=CCN(C)[C@@H]([C@H](O[C@@H]2O[C@H](CN)[C@@H](O)[C@H]2O)[C@H]2O[C@@H](n3ccc(=O)[nH]c3=O)[C@H](O)[C@@H]2O)C(=O)N1C
MIC (Mycolicibacterium phlei): > 100 µg/mL | MIC [1]: 3.13 µg/mL (≈ 3.94 µM) | MIC [2]: 1.56 µg/mL (≈ 1.96 µM) | MIC [3]: 6.25 µg/mL (≈ 7.86 µM) | MIC [4]: 6.25 µg/mL (≈ 7.86 µM) | MIC [5]: 6.25 µg/mL (≈ 7.86 µM) | MIC [6]: 1.56 µg/mL (≈ 1.96 µM) | MIC (Mycolicibacterium vaccae): > 100 µg/mL

CCCCCCCCCCCCCCCCCCCCNC(=O)C1=CCN(C)[C@@H]([C@H](O[C@@H]2O[C@H](CN)[C@@H](O)[C@H]2O)[C@H]2O[C@@H](n3ccc(=O)[nH]c3=O)[C@H](O)[C@@H]2O)C(=O)N1C
MIC (Mycolicibacterium phlei): 1.56 µg/mL (≈ 1.86 µM) | MIC [1]: 1.56 µg/mL (≈ 1.86 µM) | MIC [2]: 25 µg/mL (≈ 29.9 µM) | MIC [3]: 50 µg/mL (≈ 59.7 µM) | MIC (Staphylococcus aureus [7]): > 100 µg/mL | MIC [4]: 1.56 µg/mL (≈ 1.86 µM) | MIC [5]: > 100 µg/mL | MIC [6]: 6.25 µg/mL (≈ 7.47 µM) | MIC (Mycolicibacterium vaccae): 12.5 µg/mL (≈ 14.9 µM) | MIC (Staphylococcus aureus [8]): > 100 µg/mL

CCCCCCCOc1ccc(NC(=O)C2=CCN(C)[C@@H]([C@H](O[C@@H]3O[C@H](CN)[C@@H](O)[C@H]3O)[C@H]3O[C@@H](n4ccc(=O)[nH]c4=O)[C@H](O)[C@@H]3O)C(=O)N2C)cc1
MIC (Mycolicibacterium phlei): 3.13 µg/mL (≈ 4.19 µM) | MIC [1]: 0.78 µg/mL (≈ 1.04 µM) | MIC [2]: 0.78 µg/mL (≈ 1.04 µM) | MIC [3]: 0.2 µg/mL (≈ 0.268 µM) | MIC (Staphylococcus aureus [7]): 25 µg/mL (≈ 33.5 µM) | MIC [4]: 0.78 µg/mL (≈ 1.04 µM) | MIC [5]: 0.1 µg/mL (≈ 0.134 µM) | MIC [6]: 0.78 µg/mL (≈ 1.04 µM) | MIC (Mycolicibacterium vaccae): 6.25 µg/mL (≈ 8.37 µM) | MIC (Staphylococcus aureus [8]): 25 µg/mL (≈ 33.5 µM) | MIC (Staphylococcus aureus [9]): < 0.2 µg/mL | MIC (Bacillus subtilis): 50 µg/mL (≈ 67 µM) | MIC (Escherichia coli [10]): 3.13 µg/mL (≈ 4.19 µM)

NC[C@H]1O[C@@H](OC[C@H]2O[C@@H](n3ccc(=O)[nH]c3=O)C[C@@H]2O)[C@H](O)[C@@H]1O
IC50 (Escherichia coli [11]): 80 µM

CCCCCCCc1ccc(NC(=O)C2=CCN(C)[C@@H]([C@H](O[C@@H]3O[C@H](CN)[C@@H](O)[C@H]3O)[C@H]3O[C@@H](n4ccc(=O)[nH]c4=O)[C@H](O)[C@@H]3O)C(=O)N2C)cc1
MIC (Mycolicibacterium phlei): 25 µg/mL (≈ 34.2 µM) | MIC [1]: 0.78 µg/mL (≈ 1.07 µM) | MIC [2]: 1.56 µg/mL (≈ 2.13 µM) | MIC [3]: 0.05 µg/mL (≈ 0.0684 µM) | MIC (Staphylococcus aureus [7]): < 0.2 µg/mL | MIC [4]: 0.78 µg/mL (≈ 1.07 µM) | MIC [5]: 0.1 µg/mL (≈ 0.137 µM) | MIC [6]: < 0.2 µg/mL | MIC (Mycolicibacterium vaccae): 1.56 µg/mL (≈ 2.13 µM) | MIC (Staphylococcus aureus [8]): 12.5 µg/mL (≈ 17.1 µM) | MIC (Staphylococcus aureus [9]): 50 µg/mL (≈ 68.4 µM) | MIC (Bacillus subtilis): 6.25 µg/mL (≈ 8.55 µM)

CCCNC[C@H]1O[C@@H](OC[C@H]2O[C@@H](n3ccc(=O)[nH]c3=O)[C@H](O)[C@@H]2O)[C@H](O)[C@@H]1O
IC50 (Escherichia coli [11]): 140 µM

CCCCCCCCCCCCCCc1ccc(NC(=O)C2=CCN(C)[C@@H]([C@H](O[C@@H]3O[C@H](CN)[C@@H](O)[C@H]3O)[C@H]3O[C@@H](n4ccc(=O)[nH]c4=O)[C@H](O)[C@@H]3O)C(=O)N2C)cc1
MIC (Mycolicibacterium phlei): 3.13 µg/mL (≈ 3.78 µM) | MIC [1]: 3.13 µg/mL (≈ 3.78 µM) | MIC [2]: 6.25 µg/mL (≈ 7.54 µM) | MIC [3]: 0.39 µg/mL (≈ 0.47 µM) | MIC (Staphylococcus aureus [7]): 12.5 µg/mL (≈ 15.1 µM) | MIC [4]: 3.13 µg/mL (≈ 3.78 µM) | MIC [5]: 0.78 µg/mL (≈ 0.941 µM) | MIC [6]: 6.25 µg/mL (≈ 7.54 µM) | MIC (Mycolicibacterium vaccae): 6.25 µg/mL (≈ 7.54 µM) | MIC (Staphylococcus aureus [8]): 12.5 µg/mL (≈ 15.1 µM) | MIC (Staphylococcus aureus [9]): 0.39 µg/mL (≈ 0.47 µM) | MIC (Bacillus subtilis): > 100 µg/mL | MIC (Escherichia coli [10]): > 100 µg/mL

NC[C@H]1O[C@@H](O[C@H](CO)[C@H]2O[C@@H](n3ccc(=O)[nH]c3=O)[C@H](O)[C@@H]2O)[C@H](O)[C@@H]1O
IC50 (Escherichia coli [11]): 425 µM

NC[C@@H]1C[C@@H](O)[C@H](OC[C@H]2O[C@@H](n3ccc(=O)[nH]c3=O)[C@H](O)[C@@H]2O)O1
IC50 (Escherichia coli [11]): > 1000 µM

CCCCCCCCCCCCCCCC(=O)O[C@H]1CN(C)[C@@H]([C@H](O)[C@H]2O[C@@H](n3ccc(=O)[nH]c3=O)[C@H](O)[C@@H]2O)C(=O)N(C)[C@@H]1C(=O)O
MIC50 (Escherichia coli [11]): > 100 µg/mL

CCCCCCCCCCOC(=O)C1=CCN(C)[C@@H]([C@H](O[C@@H]2O[C@H](CN)[C@@H](O)[C@H]2O)[C@H]2O[C@@H](n3ccc(=O)[nH]c3=O)[C@H](O)[C@@H]2O)C(=O)N1C
MIC (Mycolicibacterium phlei): > 100 µg/mL | MIC [1]: 12.5 µg/mL (≈ 17.9 µM) | MIC [2]: 12.5 µg/mL (≈ 17.9 µM) | MIC [3]: 12.5 µg/mL (≈ 17.9 µM) | MIC [4]: 12.5 µg/mL (≈ 17.9 µM) | MIC [5]: 50 µg/mL (≈ 71.7 µM) | MIC [6]: 50 µg/mL (≈ 71.7 µM) | MIC (Mycolicibacterium vaccae): 0.78 µg/mL (≈ 1.12 µM) | MIC (Staphylococcus aureus [8]): > 100 µg/mL

CCCCOc1ccc(NC(=O)C2=CCN(C)[C@@H]([C@H](O[C@@H]3O[C@H](CN)[C@@H](O)[C@H]3O)[C@H]3O[C@@H](n4ccc(=O)[nH]c4=O)[C@H](O)[C@@H]3O)C(=O)N2C)cc1
MIC (Mycolicibacterium phlei): > 100 µg/mL | MIC [1]: 1.56 µg/mL (≈ 2.21 µM) | MIC [2]: 3.13 µg/mL (≈ 4.44 µM) | MIC [3]: 0.78 µg/mL (≈ 1.11 µM) | MIC (Staphylococcus aureus [7]): > 100 µg/mL | MIC [4]: 3.13 µg/mL (≈ 4.44 µM) | MIC [5]: 0.78 µg/mL (≈ 1.11 µM) | MIC [6]: 25 µg/mL (≈ 35.5 µM) | MIC (Mycolicibacterium vaccae): 100 µg/mL (≈ 142 µM) | MIC (Staphylococcus aureus [8]): > 100 µg/mL | MIC (Staphylococcus aureus [9]): 3.13 µg/mL (≈ 4.44 µM) | MIC (Bacillus subtilis): > 100 µg/mL | MIC (Escherichia coli [10]): > 100 µg/mL

CCCCCCCCCCCCCOC(=O)C1=CCN(C)[C@@H]([C@H](O[C@@H]2O[C@H](CN)[C@@H](O)[C@H]2O)[C@H]2O[C@@H](n3ccc(=O)[nH]c3=O)[C@H](O)[C@@H]2O)C(=O)N1C
MIC (Mycolicibacterium phlei): 25 µg/mL (≈ 33.8 µM) | MIC [1]: 6.25 µg/mL (≈ 8.45 µM) | MIC [2]: 3.13 µg/mL (≈ 4.23 µM) | MIC [3]: 12.5 µg/mL (≈ 16.9 µM) | MIC (Staphylococcus aureus [7]): 0.78 µg/mL (≈ 1.05 µM) | MIC [4]: 50 µg/mL (≈ 67.6 µM) | MIC [5]: 12.5 µg/mL (≈ 16.9 µM) | MIC [6]: 6.25 µg/mL (≈ 8.45 µM) | MIC (Mycolicibacterium vaccae): 3.13 µg/mL (≈ 4.23 µM) | MIC (Staphylococcus aureus [8]): 12.5 µg/mL (≈ 16.9 µM) | MIC (Staphylococcus aureus [9]): > 100 µg/mL | MIC (Bacillus subtilis): 25 µg/mL (≈ 33.8 µM)

CCCCCCCCCCCCCCCC(=O)O[C@H]1CN(C)[C@@H]([C@@H](C)O[C@@H]2O[C@H](CN)[C@@H](O)[C@H]2O)C(=O)N(C)[C@@H]1C(=O)O
MIC50 (Escherichia coli [11]): > 100 µg/mL

N/C=N/C[C@H]1O[C@@H](OC[C@H]2O[C@@H](n3ccc(=O)[nH]c3=O)[C@H](O)[C@@H]2O)[C@H](O)[C@@H]1O
IC50 (Escherichia coli [11]): 30 µM

CCCCCCCC/C=C/CCCCCCCCNC(=O)C1=CCN(C)[C@@H]([C@H](O[C@@H]2O[C@H](CN)[C@@H](O)[C@H]2O)[C@H]2O[C@@H](n3ccc(=O)[nH]c3=O)[C@H](O)[C@@H]2O)C(=O)N1C
MIC (Mycolicibacterium phlei): 1.56 µg/mL (≈ 1.93 µM) | MIC [1]: 3.13 µg/mL (≈ 3.88 µM) | MIC [2]: 6.25 µg/mL (≈ 7.74 µM) | MIC [3]: 0.78 µg/mL (≈ 0.967 µM) | MIC (Staphylococcus aureus [7]): 6.25 µg/mL (≈ 7.74 µM) | MIC [4]: 3.13 µg/mL (≈ 3.88 µM) | MIC [5]: 1.56 µg/mL (≈ 1.93 µM) | MIC [6]: 1.56 µg/mL (≈ 1.93 µM) | MIC (Mycolicibacterium vaccae): 1.56 µg/mL (≈ 1.93 µM) | MIC (Staphylococcus aureus [8]): 6.25 µg/mL (≈ 7.74 µM) | MIC (Staphylococcus aureus [9]): 0.78 µg/mL (≈ 0.967 µM) | MIC (Bacillus subtilis): > 100 µg/mL | MIC (Escherichia coli [10]): > 100 µg/mL
